# Measurements published in ChEMBL document CHEMBL5030514, “Discovery of Anti-TNBC Agents Targeting PTP1B: Total Synthesis, Structure-Activity Relationship, In Vitro and In Vivo Investigations of Jamunones” (J Med Chem, 2021).
# Calls of active or inactive are those of the source. The calls are words filed in the database; no cut-off is given here.
# Assays:
# MDA-MB-231 [1] = assay: Inhibition of PTP1B expression in human MDA-MB-231 cells by Western blot analysis; format: functional, cell-based
# [2] = Selective index, ratio of IC50 for human 293T cells to IC50 of MCF-7 cells; format: toxicity; conditions: 293T cells versus MCF-7 cells, read-out: Selectivity Index
# MDA-MB-231 [3] = assay: Antitumour activity against human MDA-MB-231 cells xenografted in BALB/c nude mouse assessed as upregulation of cleaved poly(ADP-ribose) polymerase level at 15 to 30 mg/kg, ip administered once for every other day for 20 days by Western blot analysis; format: functional, organism-based; conditions: dose 15-30 mg/kg, time 20.0 day
# MCF7 [4] = assay: Cell cycle arrest in human MCF-7 cells assessed as downregulation of cyclin E1 expression by Western blot analysis; format: functional, cell-based
# MCF7 [5] = assay: Cell cycle arrest in human MCF-7 cells assessed as upregulation of p21 level by Western blot analysis; format: functional, cell-based
# MCF7 [6] = assay: Cell cycle arrest in human MCF-7 cells assessed as downregulation of CDK4 expression by Western blot analysis; format: functional, cell-based
# MDA-MB-231 [7] = assay: Induction of apoptosis in human MDA-MB-231 cells assessed as upregulation of cleaved poly(ADP-ribose) polymerase level at 0.56 to 5 uM measured after 24 hrs by Western blot analysis; format: functional, cell-based; conditions: dose 0.56-5 µM
# MDA-MB-231 [8] = assay: Antitumour activity against human MDA-MB-231 cells xenografted in BALB/c nude mouse assessed as downregulation of Bcl-2 level at 15 to 30 mg/kg, ip administered once for every other day for 20 days by Western blot analysis; format: functional, organism-based; conditions: dose 15-30 mg/kg, time 20.0 day
# MCF7 [9] = assay: Induction of apoptosis in human MCF-7 cells assessed as decrease in Bcl-2 level at 1.67 to 15 uM measured after 24 hrs by Western blot analysis; format: functional, cell-based; conditions: dose 1.67-15 µM
# MCF7 [10] = assay: Induction of apoptosis in human MCF-7 cells assessed as upregulation of cleaved poly(ADP-ribose) polymerase level at 1.67 to 15 uM measured after 24 hrs by Western blot analysis; format: functional, cell-based; conditions: dose 1.67-15 µM
# MDA-MB-231 [11] = assay: Antitumour activity against human MDA-MB-231 cells xenografted in BALB/c nude mouse assessed as downregulation of cyclin E1 level at 15 to 30 mg/kg, ip administered once for every other day for 20 days by Western blot analysis; format: functional, organism-based; conditions: dose 15-30 mg/kg, time 20.0 day
# MDA-MB-231 [12] = assay: Antitumour activity against human MDA-MB-231 cells xenografted in BALB/c nude mouse assessed as upregulation of p21 level at 15 to 30 mg/kg, ip administered once for every other day for 20 days by Western blot analysis; format: functional, organism-based; conditions: dose 15-30 mg/kg, time 20.0 day
# MDA-MB-231 [13] = assay: Induction of mitochondrial apoptosis in human MDA-MB-231 cells assessed as membrane blebbing by Hoechst 33258 staining based fluorescence microscopic assay; format: functional, cell-based
# MCF7 [14] = assay: Inhibition of PTP1B expression in human MCF7 cells by Western blot analysis; format: functional, cell-based
# [15] = Toxicity in human MDA-MB-231 cells xenografted in BALB/c nude mouse assessed as change in body weight at 15 to 30 mg/kg, ip administered once for every other day for 20 days relative to control; format: organism-based; conditions: in vivo, 480 h, dose 15-30 mg/kg, time 20 day
# MCF7 [16] = assay: Induction of mitochondrial apoptosis in human MCF-7 cells assessed as membrane blebbing by Hoechst 33258 staining based fluorescence microscopic assay; format: functional, cell-based
# MDA-MB-231 [17] = assay: Effect on PI3K p85 expression in human MDA-MB-231 cells by Western blot analysis; format: functional, cell-based
# MCF7 [18] = assay: Induction of mitochondrial apoptosis in human MCF-7 cells assessed as chromatin shrinkage by Hoechst 33258 staining based fluorescence microscopic assay; format: functional, cell-based
# [19] = Selective index, ratio of IC50 for human 293T cells to IC50 of MDA-MB-231 cells; format: toxicity; conditions: 293T cells versus MDA-MB-231 cells, read-out: Selectivity Index
# MDA-MB-231 [20] = assay: Cell cycle arrest in human MDA-MB-231 cells assessed as downregulation of CDK6 expression by Western blot analysis; format: functional, cell-based
# MDA-MB-231 [21] = assay: Cell cycle arrest in human MDA-MB-231 cells assessed as upregulation of p21 level by Western blot analysis; format: functional, cell-based
# MDA-MB-231 [22] = assay: Induction of mitochondrial apoptosis in human MDA-MB-231 cells assessed as formation of apoptotic bodies by Hoechst 33258 staining based fluorescence microscopic assay; format: functional, cell-based
# MCF7 [23] = assay: Induction of mitochondrial apoptosis in human MCF-7 cells assessed as formation of apoptotic bodies by Hoechst 33258 staining based fluorescence microscopic assay; format: functional, cell-based
# MCF7 [24] = assay: Induction of apoptosis in human MCF-7 cells assessed as increase in production of cleaved caspase-9 at 1.67 to 15 uM measured after 24 hrs by Western blot analysis; format: functional, cell-based; conditions: dose 1.67-15 µM
# MDA-MB-231 [25] = assay: Cell cycle arrest in human MDA-MB-231 cells assessed as downregulation of cyclin D1 expression by Western blot analysis; format: functional, cell-based
# MDA-MB-231 [26] = assay: Induction of apoptosis in human MDA-MB-231 cells assessed as increase in production of cleaved caspase-3 at 0.56 to 5 uM measured after 24 hrs by Western blot analysis; format: functional, cell-based; conditions: dose 0.56-5 µM
# MCF7 [27] = assay: Effect on PI3K p85 expression in human MCF7 cells by Western blot analysis; format: functional, cell-based
# MDA-MB-231 [28] = assay: Antiproliferative activity against human MDA-MB-231 cells measured by MTT assay; format: functional, cell-based
# MDA-MB-231 [29] = assay: Induction of mitochondrial apoptosis in human MDA-MB-231 cells assessed as total apoptotic cells by fluorescein isothiocyanate -annexin V/PI double staining based flow cytometric analysis (reference value: 3.5%); format: functional
# MCF7 [30] = assay: Induction of mitochondrial apoptosis in human MCF-7 cells assessed as total apoptotic cells by fluorescein isothiocyanate -annexin V/PI double staining based flow cytometric analysis (reference value: 4.4%); format: functional
# MDA-MB-231 [31] = assay: Induction of mitochondrial apoptosis in human MDA-MB-231 cells assessed as early apoptotic cells at 5 uM measured after 24 hrs by FITC -annexin V/PI double staining based flow cytometric analysis (reference value: 2.2%); format: functional
# MDA-MB-231 [32] = assay: Inhibition of PI3K in human MDA-MB-231 cells assessed as Akt phosphorylation by Western blot analysis; format: cell-based
# MCF7 [33] = assay: Antiproliferative activity against human MCF-7 cells assessed as effect on cell viability at 1.67-15 uM for 24 hrs measured by MTT assay; format: functional, cell-based
# MCF7 [34] = assay: Induction of mitochondrial apoptosis in human MCF-7 cells assessed as accumulation of reactive oxygen species by flow cytometry; format: functional, cell-based
# [35] = Selective index, ratio of IC50 for HUVEC cells to IC50 of MCF-7 cells; format: toxicity; conditions: human, HUVEC cells versus MCF-7 cells; read-out: Selectivity Index
# MDA-MB-231 [36] = assay: Antiproliferative activity against human MDA-MB-231 cells assessed as effect on cell viability at 0.56-5 uM for 24 hrs measured by MTT assay; format: functional, cell-based
# MDA-MB-231 [37] = assay: Antitumour activity against human MDA-MB-231 cells xenografted in BALB/c nude mouse assessed as tumour growth inhibition at 30 mg/kg, ip administered once for every other day for 20 days relative to control; format: functional; conditions: MDA-MB-231, ip, 480 h, time 20 day, read-out: TGI
# MCF7 [38] = assay: Induction of mitochondrial apoptosis in human MCF7 cells assessed as early apoptotic cells at 15 uM measured after 24 hrs by FITC -annexin V/PI double staining based flow cytometric analysis (reference value: 3.3%); format: functional
smiles,measurement,setting,value
CCCC/C=C/CCCCCCCCCC1(O)CC(=O)c2c(O)c(C)c(O)c(C)c2O1 (stereo not drawn),Activity,MDA-MB-231 [1],Active
same,selectivity ratio,[2],2.08
same,Activity,MDA-MB-231 [3],Active
same,Activity,MCF7 [4],Dose-Dependent Effect
same,Activity,MCF7 [5],Dose-Dependent Effect
same,Activity,MCF7 [6],Dose-Dependent Effect
same,Activity,MDA-MB-231 [7],Active
same,Activity,MDA-MB-231 [8],Active
same,Activity,MCF7 [9],Dose-Dependent Effect
same,Activity,MCF7 [10],Active
same,Activity,MDA-MB-231 [11],Active
same,Activity,MDA-MB-231 [12],Active
same,Activity,MDA-MB-231 [13],Active
same,Activity,MCF7 [14],Active
same,Activity,[15],Not Active
same,Activity,MCF7 [16],Active
same,Activity,MDA-MB-231 [17],inactive
same,Activity,MCF7 [18],Active
same,selectivity ratio,[19],5.35
same,Activity,MDA-MB-231 [20],Dose-Dependent Effect
same,Activity,MDA-MB-231 [21],Dose-Dependent Effect
same,Activity,MDA-MB-231 [22],Active
same,Activity,MCF7 [23],Active
same,Activity,MCF7 [24],Dose-Dependent Effect
same,Activity,MDA-MB-231 [25],Dose-Dependent Effect
same,Activity,MDA-MB-231 [26],Dose-Dependent Effect
same,Activity,MCF7 [27],inactive
same,IC50,MDA-MB-231 [28],6.79 µM
same,Activity,MDA-MB-231 [29],11.8%
same,Activity,MCF7 [30],13.6%
same,Activity,MDA-MB-231 [31],6.1%
same,inhibition,MDA-MB-231 [32],Dose-Dependent Effect
same,Activity,MCF7 [33],inactive
same,Activity,MCF7 [34],Active
same,selectivity ratio,[35],2.64
same,Activity,MDA-MB-231 [36],inactive
same,inhibition in vivo at 30 mg/kg,MDA-MB-231 [37],79.3%
same,Activity,MCF7 [38],4.7%
